In US10548996B2, “Hydrogels for localized radiotherapy” (Washington University, priority 2014, dated 2020):

How the values were obtained:
[1] = Release of radioactivity from implanted solid chitosan hydrogels to adjacent normal tissues (radiographic imaging); type: in vivo; settings: FIG. 4; rats, non-encapsulated, loaded in solid chitosan hydrogel implant; Day-1 to Day-7
[2] = In vitro release of fluorescence from chitosan hydrogels to the surrounding media; type: physicochemical; settings: FIG. 5, all time points tested, up to two weeks
Experimental: To determine the release of large molecules from the hydrogels, the following experiment was conducted. The chitosan hydrogels with the best injectability properties were analyzed naïve or loaded with the alginate microparticles with the best encapsulation efficiency. The in vitro release studies were developed by using a large-size molecule such as albumin and a small-size molecule as cresyl violet to detect the efficacy in both encapsulation settings. Albumin is not detectable by fluorescence reader or spectrophotometer, thus FITC was labeled to albumin. […] Different time points were measured to analyze short and long-term release. At 0, 1, 2, 4, 8, and 24 h, for short-term release, and 0, 0.33, 1, 2, 3, 7, 14, 21, 28, 42 days for long-term release, samples from the PBS solution that surrounded the chitosan hydrogels were analyzed by fluorescence reader (Alb-FITC and FITC) at 485/516 nm or spectrophotometer (CV) at 595 nm. The % release was calculated as follows: % Release=(Chitosan hydrogel−Blank)/(Control−Blank)*100
To assess these concepts, the release of fluorescence to the surrounding media was tested from chitosan hydrogels containing free-fluorescein, fluorescien-conjugated to bovine serum albumin (FITC-Alb), and FITC-Alb encapsulated in calcium-alginate microparticles.

Compound	radioactive leakage from the implant to adjacent normal tissues [1]	relative release of fluorescence to the surrounding media [2]
CC(C)CCCC(C)C1CCC2C3CC(C[131I])C4=C(CCC(O)C4)C3CCC12C (centres unmarked) [^131I-nor-cholesterol]	radioactive leakage from the implant starting at Day-1 that becomes more evident at Day-7	–
FITC-Alb: fluorescien-conjugated to bovine serum albumin, in chitosan hydrogel	–	less than half of the relative release of fluorescein
